Consider 18 compounds from PubChem BioAssay AID256 (DTP/NCI, 2004).

Several values for one entry are separate records, joined by “and”; a condition that tells them apart may be missing. Equal entries are not always repeated. Toxic doses and inconclusive results are not listed.

The test system of this assay is CD2F1 mice, L1210 leukemia ip, survival T/C. As to the kind of experiment: NCI In Vivo Anticancer Drug Screen. Data for tumor model L1210 Leukemia (intraperitoneal) in CD2F1 (CDF1) mice. Particulars: higher = longer survival. The gist of the method:
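Compound-dosed mice with transplantable tumor versus matched vehicle controls; endpoint ratio T/C reported.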

[1] abbreviates: endpoint: mean survival time, dose: 100.0 mg/kg/injection, schedule: Q04DX003 (ip), vehicle: saline with Tween-80.
Setting [2] is: endpoint: mean survival time, dose: 200.0 mg/kg/injection, schedule: Q04DX003 (ip), vehicle: saline with Tween-80.
Setting [3] is: endpoint: mean survival time, dose: 400.0 mg/kg/injection, schedule: Q04DX003 (ip), vehicle: saline with Tween-80.
Where [4] appears, read: endpoint: mean survival time, dose: 100.0 mg/kg/injection, schedule: Q01DX009 (ip), vehicle: saline.
[5] abbreviates: endpoint: mean survival time, dose: 100.0 mg/kg/injection, schedule: Q04DX003 (ip), vehicle: saline.
The mark [6] stands for this setting: endpoint: mean survival time, dose: 200.0 mg/kg/injection, schedule: Q04DX003 (ip), vehicle: saline.
Setting [7] is: endpoint: mean survival time, dose: 100.0 mg/kg/injection, schedule: Q01DX009 (ip), vehicle: saline with Tween-80.
[8] abbreviates: endpoint: mean survival time, dose: 200.0 mg/kg/injection, schedule: Q01DX009 (ip), vehicle: saline with Tween-80.
The mark [9] stands for this setting: endpoint: mean survival time, dose: 400.0 mg/kg/injection, schedule: Q01DX009 (ip), vehicle: saline with Tween-80.
Setting [10] is: endpoint: mean survival time, dose: 200.0 mg/kg/injection, schedule: Q01DX009 (ip), vehicle: saline.

Turning to `O=C(O)c1cccc(F)c1Br`, the T/C is, setting by setting: (endpoint: mean survival time, dose: 100.0 mg/kg/injection, schedule: Q04DX002 (ip), vehicle: saline with Tween-80) 95 % of control; (endpoint: mean survival time, dose: 200.0 mg/kg/injection, schedule: Q04DX002 (ip), vehicle: saline with Tween-80) 95 % of control; (endpoint: mean survival time, dose: 400.0 mg/kg/injection, schedule: Q04DX002 (ip), vehicle: saline with Tween-80) 87 % of control.

With `Cc1cccc(-n2c(N)cc(=O)[nH]c2=S)n1`, the T/C under setting [1] was 96 % of control.

In the case of `N=c1cc([N+](=O)[O-])ccn1O`, the T/C by setting is: (endpoint: mean survival time, dose: 100.0 mg/kg/injection, schedule: Q01DX001 (ip), vehicle: saline) 97 % of control; (endpoint: mean survival time, dose: 200.0 mg/kg/injection, schedule: Q01DX001 (ip), vehicle: saline) 97 % of control; (endpoint: mean survival time, dose: 400.0 mg/kg/injection, schedule: Q01DX001 (ip), vehicle: saline) 105 % of control.

`CC(=O)OCc1ncccc1OC(C)=O`: the T/C runs as follows: (endpoint: mean survival time, dose: 25.0 mg/kg/injection, schedule: Q01DX009 (ip), vehicle: suspension in saline) 102 % of control; (endpoint: mean survival time, dose: 50.0 mg/kg/injection, schedule: Q01DX009 (ip), vehicle: suspension in saline) 98 % of control; (endpoint: mean survival time, dose: 100.0 mg/kg/injection, schedule: Q01DX009 (ip), vehicle: suspension in saline) 102 % of control; (endpoint: mean survival time, dose: 200.0 mg/kg/injection, schedule: Q01DX009 (ip), vehicle: suspension in saline) 93 % of control.

Turning to `Nc1ccc(Cn2ccc3c4c(N)nc(N)nc4ccc32)cc1`, the T/C was 101 % of control (endpoint: mean survival time, dose: 1.25 mg/kg/injection, schedule: Q01DX005 (ip), vehicle: saline with Tween-80); 101 % of control and 102 % of control and 108 % of control (endpoint: mean survival time, dose: 1.25 mg/kg/injection, schedule: Q01DX009 (ip), vehicle: saline with Tween-80); 111 % of control (endpoint: mean survival time, dose: 2.5 mg/kg/injection, schedule: Q01DX005 (ip), vehicle: saline with Tween-80); 110 % of control (endpoint: mean survival time, dose: 5.0 mg/kg/injection, schedule: Q01DX005 (ip), vehicle: saline with Tween-80); 123 % of control (endpoint: mean survival time, dose: 10.0 mg/kg/injection, schedule: Q01DX005 (ip), vehicle: saline with Tween-80); 106 % of control (endpoint: mean survival time, dose: 20.0 mg/kg/injection, schedule: Q01DX005 (ip), vehicle: saline with Tween-80). Also, the T/C was 117 % of control (endpoint: mean survival time, dose: 30.0 mg/kg/injection, schedule: Q01DX005 (ip), vehicle: saline with Tween-80); 103 % of control and 108 % of control (endpoint: median survival time, dose: 1.25 mg/kg/injection, schedule: Q01DX009 (ip), vehicle: saline with Tween-80); 118 % of control and 103 % of control (endpoint: median survival time, dose: 2.5 mg/kg/injection, schedule: Q01DX009 (ip), vehicle: saline with Tween-80); 124 % of control and 103 % of control (endpoint: median survival time, dose: 5.0 mg/kg/injection, schedule: Q01DX009 (ip), vehicle: saline with Tween-80); 113 % of control (endpoint: median survival time, dose: 10.0 mg/kg/injection, schedule: Q01DX009 (ip), vehicle: saline with Tween-80); 152 % of control (endpoint: median survival time, dose: 20.0 mg/kg/injection, schedule: Q01DX009 (ip), vehicle: saline with Tween-80).

Turning to `CC(O)C1OC(n2cnc3c(ncn3C3OC(C(C)O)C(O)C3O)c2=O)C(O)C1O` (stereo unspecified), the T/C runs as follows: (endpoint: mean survival time, dose: 10.63 mg/kg/injection, schedule: Q01DX005 (ip), vehicle: water) 102 % of control; (endpoint: mean survival time, dose: 21.25 mg/kg/injection, schedule: Q01DX005 (ip), vehicle: water) 98 % of control; (endpoint: mean survival time, dose: 42.5 mg/kg/injection, schedule: Q01DX005 (ip), vehicle: water) 102 % of control; (endpoint: mean survival time, dose: 85.0 mg/kg/injection, schedule: Q01DX005 (ip), vehicle: water) 101 % of control; (endpoint: mean survival time, dose: 170.0 mg/kg/injection, schedule: Q01DX005 (ip), vehicle: water) 108 % of control.

Regarding `C/C(=N/O)c1ccc(O)cc1`, the T/C is 90 % of control under setting [1], 100 % of control under setting [2] and 94 % of control under setting [3].

`O=C(O)c1ccccc1N(CCO)CCCl`: the T/C (endpoint: mean survival time, dose: 3.13 mg/kg/injection, schedule: Q01DX009 (ip), vehicle: saline with Tween-80) is 121 % of control and 110 % of control; the T/C (endpoint: mean survival time, dose: 6.25 mg/kg/injection, schedule: Q01DX009 (ip), vehicle: saline with Tween-80) was 119 % of control; the T/C (endpoint: mean survival time, dose: 10.0 mg/kg/injection, schedule: Q01DX009 (ip), vehicle: Klucel (hydroxypropylcellulose) (HPC)) is 186 % of control.

On to `Nc1ccc2ccc(O)cc2c1`, for which the T/C by setting is: under setting [4], 97 % of control; under setting [5], 103 % of control; under setting [6], 108 % of control.

As for `S=C(Nc1ccc(Cl)c(Cl)c1)SCc1ccc2c(c1)OCO2`, the T/C is 107 % of control (endpoint: mean survival time, dose: 18.7 mg/kg/injection, schedule: Q01DX009 (ip), vehicle: suspension in saline); 108 % of control (endpoint: mean survival time, dose: 37.5 mg/kg/injection, schedule: Q01DX009 (ip), vehicle: suspension in saline); 107 % of control (endpoint: mean survival time, dose: 75.0 mg/kg/injection, schedule: Q01DX009 (ip), vehicle: suspension in saline); 111 % of control (endpoint: mean survival time, dose: 150.0 mg/kg/injection, schedule: Q01DX009 (ip), vehicle: suspension in saline).

On to `Cc1sc2ccccc2c2nc3ccccc3c1-2`, for which the T/C runs as follows: under setting [7], 106 % of control; under setting [8], 104 % of control; under setting [9], 107 % of control.

In the case of `CCCCCCCC(=O)Nc1ccccc1F`, the T/C runs as follows: under setting [5], 103 % of control; under setting [6], 103 % of control; (endpoint: mean survival time, dose: 400.0 mg/kg/injection, schedule: Q04DX003 (ip), vehicle: saline) 95 % of control.

With `CC(=O)NC(C=O)C(O)C1OC(c2ccccc2)OCC1O` (stereo unspecified), the T/C was 97 % of control (endpoint: mean survival time, dose: 100.0 mg/kg/injection, schedule: Q01DX001 (ip), vehicle: saline with Tween-80); 95 % of control under setting [7]; 97 % of control (endpoint: mean survival time, dose: 200.0 mg/kg/injection, schedule: Q01DX001 (ip), vehicle: saline with Tween-80); 98 % of control under setting [8]; 94 % of control (endpoint: mean survival time, dose: 400.0 mg/kg/injection, schedule: Q01DX001 (ip), vehicle: saline with Tween-80); 92 % of control under setting [9].

Take `CCN1/C(=C/C=C/c2oc3ccc4ccccc4c3[n+]2CC)Oc2ccc3ccccc3c21`: the T/C reads like this: (endpoint: mean survival time, dose: 9.5 mg/kg/injection, schedule: Q01DX001 (ip), vehicle: other) 104 % of control; (endpoint: mean survival time, dose: 19.0 mg/kg/injection, schedule: Q01DX001 (ip), vehicle: other) 112 % of control; (endpoint: mean survival time, dose: 38.0 mg/kg/injection, schedule: Q01DX001 (ip), vehicle: other) 118 % of control.

Turning to `N#CSc1nc2ccccc2s1`, the T/C was 96 % of control (endpoint: mean survival time, dose: 25.0 mg/kg/injection, schedule: Q01DX009 (ip), vehicle: saline with Tween-80); 94 % of control (endpoint: mean survival time, dose: 50.0 mg/kg/injection, schedule: Q01DX009 (ip), vehicle: saline with Tween-80); 97 % of control under setting [7].

With `NC1=NCN(C2OC(COC(=O)c3ccccc3)C(OC(=O)c3ccccc3)C2OC(=O)c2ccccc2)C(=O)N1` (stereo unspecified), the T/C is, setting by setting: (endpoint: mean survival time, dose: 3.12 mg/kg/injection, schedule: Q01DX009 (ip), vehicle: saline) 97 % of control and 108 % of control; (endpoint: mean survival time, dose: 6.25 mg/kg/injection, schedule: Q01DX009 (ip), vehicle: saline) 91 % of control and 102 % of control; (endpoint: mean survival time, dose: 12.5 mg/kg/injection, schedule: Q01DX009 (ip), vehicle: saline) 91 % of control and 100 % of control; (endpoint: mean survival time, dose: 25.0 mg/kg/injection, schedule: Q01DX009 (ip), vehicle: saline) 94 % of control and 97 % of control; (endpoint: mean survival time, dose: 50.0 mg/kg/injection, schedule: Q01DX009 (ip), vehicle: saline) 112 % of control and 100 % of control; under setting [4], 122 % of control and 108 % of control. Besides, the T/C under setting [10] was 165 % of control.

On to `NS(=O)(=O)c1ccc(NC2OCC(O)C(O)C2O)cc1` (stereo unspecified), for which the T/C by setting is: under setting [4], 103 % of control; under setting [1], 93 % of control; under setting [10], 104 % of control; under setting [2], 98 % of control; (endpoint: mean survival time, dose: 400.0 mg/kg/injection, schedule: Q01DX009 (ip), vehicle: saline) 103 % of control; under setting [3], 101 % of control.

For the compound `C=CCN(C)N=Nc1ccc(C(N)=O)cc1`, the T/C is, setting by setting: (endpoint: mean survival time, dose: 18.75 mg/kg/injection, schedule: Q01DX009 (ip), vehicle: Klucel (hydroxypropylcellulose) (HPC)) 106 % of control; (endpoint: mean survival time, dose: 37.5 mg/kg/injection, schedule: Q01DX009 (ip), vehicle: Klucel (hydroxypropylcellulose) (HPC)) 115 % of control; (endpoint: mean survival time, dose: 150.0 mg/kg/injection, schedule: Q01DX009 (ip), vehicle: Klucel (hydroxypropylcellulose) (HPC)) 156 % of control; (endpoint: mean survival time, dose: 300.0 mg/kg/injection, schedule: Q01DX009 (ip), vehicle: Klucel (hydroxypropylcellulose) (HPC)) 92 % of control.
